According to the NIST ThermoML archive (doi:10.1021/je060271a):
± gives the expanded uncertainty stated by the source.

Conditions: 323.15 K, Liquid, Vibrating tube method

CCCCC(=O)OCC(COC(=O)CCCC)(COC(=O)CCCC)COC(=O)CCCC [pentaerythritol tetrapentanoate]
Conditions | mass density [kg/m3]
10795 kPa | 1002.1 ± 1.2
10820 kPa | 1002.2 ± 1.2
10840 kPa | 1002.2 ± 1.2
10860 kPa | 1002.2 ± 1.2
10885 kPa | 1002.2 ± 1.2
10905 kPa | 1002.2 ± 1.2
10926 kPa | 1002.2 ± 1.2
10951 kPa | 1002.2 ± 1.2
10971 kPa | 1002.3 ± 1.2
10992 kPa | 1002.2 ± 1.2
11018 kPa | 1002.3 ± 1.2
11039 kPa | 1002.2 ± 1.2
11060 kPa | 1002.4 ± 1.2
11085 kPa | 1002.4 ± 1.2
11106 kPa | 1002.3 ± 1.2
11128 kPa | 1002.4 ± 1.2
11153 kPa | 1002.4 ± 1.2
11175 kPa | 1002.3 ± 1.2
11197 kPa | 1002.4 ± 1.2
11223 kPa | 1002.5 ± 1.2
11245 kPa | 1002.5 ± 1.2
11267 kPa | 1002.4 ± 1.2
11289 kPa | 1002.5 ± 1.2
11316 kPa | 1002.5 ± 1.2
11339 kPa | 1002.5 ± 1.2
11366 kPa | 1002.7 ± 1.2
11388 kPa | 1002.6 ± 1.2
11411 kPa | 1002.6 ± 1.2
11434 kPa | 1002.6 ± 1.2
11461 kPa | 1002.6 ± 1.2
11484 kPa | 1002.6 ± 1.2
11534 kPa | 1002.6 ± 1.2
11558 kPa | 1002.6 ± 1.2
11581 kPa | 1002.6 ± 1.2
11610 kPa | 1002.5 ± 1.2
11633 kPa | 1002.7 ± 1.2
11657 kPa | 1002.6 ± 1.2
11681 kPa | 1002.7 ± 1.2
11710 kPa | 1002.7 ± 1.2
11735 kPa | 1002.8 ± 1.2
11759 kPa | 1002.7 ± 1.2
11784 kPa | 1002.8 ± 1.2
11813 kPa | 1002.8 ± 1.2
11838 kPa | 1002.8 ± 1.2
11862 kPa | 1002.9 ± 1.2
11892 kPa | 1002.9 ± 1.2
11917 kPa | 1003 ± 1.2
11942 kPa | 1002.8 ± 1.2
11971 kPa | 1003 ± 1.2
11996 kPa | 1003 ± 1.2
12022 kPa | 1002.9 ± 1.2
12053 kPa | 1003 ± 1.2
12074 kPa | 1003.1 ± 1.2
12105 kPa | 1003 ± 1.2
12130 kPa | 1003 ± 1.2
12156 kPa | 1003 ± 1.2
12187 kPa | 1003 ± 1.2
12213 kPa | 1003.1 ± 1.2
12244 kPa | 1003.1 ± 1.2
12271 kPa | 1003.1 ± 1.2
12297 kPa | 1003.2 ± 1.2
12324 kPa | 1003.2 ± 1.2
12355 kPa | 1003.2 ± 1.2
12382 kPa | 1003.4 ± 1.2
12415 kPa | 1003.3 ± 1.2
12442 kPa | 1003.1 ± 1.2
12469 kPa | 1003.2 ± 1.2
12502 kPa | 1003.3 ± 1.2
12529 kPa | 1003.4 ± 1.2
12557 kPa | 1003.4 ± 1.2
12585 kPa | 1003.4 ± 1.2
12618 kPa | 1003.2 ± 1.2
12646 kPa | 1003.4 ± 1.2
12674 kPa | 1003.4 ± 1.2
12736 kPa | 1003.4 ± 1.2
12770 kPa | 1003.5 ± 1.2
12800 kPa | 1003.3 ± 1.2
12828 kPa | 1003.6 ± 1.2
12858 kPa | 1003.5 ± 1.2
12892 kPa | 1003.5 ± 1.2
12922 kPa | 1003.7 ± 1.2
12957 kPa | 1003.7 ± 1.2
12986 kPa | 1003.6 ± 1.2
13016 kPa | 1003.7 ± 1.2
13052 kPa | 1003.6 ± 1.2
13082 kPa | 1003.6 ± 1.2
13112 kPa | 1003.7 ± 1.2
13149 kPa | 1003.7 ± 1.2
13179 kPa | 1003.7 ± 1.2
13210 kPa | 1003.7 ± 1.2
13242 kPa | 1003.9 ± 1.2
13279 kPa | 1003.8 ± 1.2
13310 kPa | 1003.9 ± 1.2
13347 kPa | 1003.9 ± 1.2
13378 kPa | 1003.7 ± 1.2
13410 kPa | 1003.9 ± 1.2
13443 kPa | 1004 ± 1.2
13482 kPa | 1003.9 ± 1.2
13514 kPa | 1004 ± 1.2
13548 kPa | 1004 ± 1.2
13581 kPa | 1004 ± 1.2
13620 kPa | 1004 ± 1.2
13654 kPa | 1004 ± 1.2
13687 kPa | 1004.2 ± 1.2
13727 kPa | 1004 ± 1.2
13760 kPa | 1004.1 ± 1.2
13794 kPa | 1004.2 ± 1.2
13829 kPa | 1004.2 ± 1.2
13870 kPa | 1004.3 ± 1.2
13945 kPa | 1004.2 ± 1.2
13980 kPa | 1004.2 ± 1.2
14049 kPa | 1004.4 ± 1.2
14091 kPa | 1004.3 ± 1.2
14126 kPa | 1004.4 ± 1.2
14162 kPa | 1004.3 ± 1.2
14284 kPa | 1004.4 ± 1.2
14320 kPa | 1004.4 ± 1.2
14358 kPa | 1004.5 ± 1.2
14402 kPa | 1004.5 ± 1.2
14440 kPa | 1004.6 ± 1.2
14477 kPa | 1004.6 ± 1.2
14515 kPa | 1004.6 ± 1.2
14560 kPa | 1004.7 ± 1.2
14600 kPa | 1004.6 ± 1.2
14639 kPa | 1004.7 ± 1.2
14678 kPa | 1004.6 ± 1.2
14717 kPa | 1004.7 ± 1.2
14764 kPa | 1004.7 ± 1.2
14803 kPa | 1004.7 ± 1.2
14843 kPa | 1004.8 ± 1.2
14891 kPa | 1004.9 ± 1.2
14931 kPa | 1004.9 ± 1.2
14972 kPa | 1005 ± 1.2
15020 kPa | 1004.9 ± 1.2
15062 kPa | 1004.9 ± 1.2
15103 kPa | 1005 ± 1.2
15147 kPa | 1005 ± 1.2
15192 kPa | 1005.1 ± 1.2
15243 kPa | 1005.1 ± 1.2
15287 kPa | 1005.1 ± 1.2
15332 kPa | 1005.1 ± 1.2
15386 kPa | 1005.2 ± 1.2
15429 kPa | 1005.1 ± 1.2
15462 kPa | 1005.2 ± 1.2
15497 kPa | 1005.2 ± 1.2
15526 kPa | 1005.2 ± 1.2
15556 kPa | 1005.3 ± 1.2
15585 kPa | 1005.3 ± 1.2
15621 kPa | 1005.2 ± 1.2
15652 kPa | 1005.4 ± 1.2
15685 kPa | 1005.4 ± 1.2
15723 kPa | 1005.4 ± 1.2
15754 kPa | 1005.5 ± 1.2
15779 kPa | 1005.4 ± 1.2
15803 kPa | 1005.4 ± 1.2
15822 kPa | 1005.5 ± 1.2
15842 kPa | 1005.5 ± 1.2
15865 kPa | 1005.6 ± 1.2
15885 kPa | 1005.5 ± 1.2
15904 kPa | 1005.6 ± 1.2
